Here are results for three compounds from patent US20250019671A1, “RECOMBINANT POLYPEPTIDE HAVING CARBOXYLIC ACID REDUCING ACTIVITY” (priority 2021, published 2025).

One may read the Km as the concentration of substrate that gives half-maximal velocity. A word on the Vmax: it is the top rate of the reaction or transport when substrate is in excess. What is called kcat is the maximal rate divided by the concentration of active sites.

Data set [1] deals with Mycobacterium abscessus carboxylic acid reductase variant L342E. The following applies: literature value (Non Patent Literature 6); cited from earlier work.
Data set [2] addresses Mycobacterium abscessus carboxylic acid reductase variant W283R/A303M (modified carboxylic acid reductase 1), SEQ ID NO: 3 (Mycobacteroides abscessus, UniProt B1MLD7, A303M/W283R). The following applies: disodium adipate 0.1875-3 mM; 0.2 mM NADPH, 0.5 mM ATP, pH=8.0, 30° C.; mean of two independent studies. From the text:
(§1) Examples of the recombinant polypeptide (also referred to as “modified carboxylic acid reductase”) having the amino acid sequence A according to the present invention are illustrated in FIG. 3 (modified carboxylic acid reductase 1, SEQ ID NO: 3) and FIG. 4 (modified carboxylic acid reductase 2, SEQ ID NO: 4). The modified carboxylic acid reductase 1 (consisting of the polypeptide set forth in SEQ ID NO: 3) illustrated in FIG. 3 has amino acid substitutions of W283R and A303M with respect to SEQ ID NO: 1. The modified carboxylic acid reductase 2 (consisting of the polypeptide set forth in SEQ ID NO: 4) illustrated in FIG. 4 has amino acid substitutions of W283R and L335F with respect to SEQ ID NO: 1. That is, in the modified carboxylic acid reductase 1, the amino acid residue at the position corresponding to position 283 and the amino acid residue at the position corresponding to position 303 are substituted with arginine and methionine, respectively, based on the amino acid sequence set forth in SEQ ID NO: 1. In the modified carboxylic acid reductase 2, the amino acid residue at the position corresponding to position 283 and the amino acid residue at the position corresponding to position 335 are substituted with arginine and phenylalanine, respectively, based on the amino acid sequence set forth in SEQ ID NO: 1.

The test system of data set [3] is Mycobacterium abscessus carboxylic acid reductase variant W283R/A303M (modified carboxylic acid reductase 1), SEQ ID NO: 3.
Source text: as §1

Data set [4] has as its system Mycobacterium abscessus carboxylic acid reductase variant G418E. The following applies: literature value (Non Patent Literature 6); cited from earlier work.
In a further data set the test system is O=C(O)CCCCC(=O)O. Put plainly: purified protein, by the assay type. The following applies: 0.2 mM NADPH, 0.5 mM ATP, 10 mM MgCl2, 100 mM HEPES potassium buffer pH=8.0, 30° C., mean of two independent studies.
Setting [5] is: other: disodium adipate 3.125-50 mM.

As for `O=C(O)CCCCC(=O)O` [adipic acid, hexanedioic acid], in data set [1], the Kcat was 2.72 ± 0.09 s⁻¹ and the Michaelis constant (Km) was 56.6 mM. In addition, in data set [2], the Kcat is 3.53 s⁻¹ and the Vmax worked out at 24.8 µmol/L/min. In data set [3] (W283R/A303M mutant vs literature L342 and G418E mutants), the “Km of the mutant enzyme for adipic acid compared to the existing variant carboxylic acid reductases (L342 and G418E mutants)” value was 1/17. Further, the “Km of the mutant enzyme for adipic acid relative to that of the wild-type enzyme” value in data set [3] (W283R/A303M mutant vs wild-type enzyme) was 1/20. Besides, the Km in data set [4] was 18.7 mM.
As to “Mycobacterium abscessus carboxylic acid reductase variant W283R/A303M (modified carboxylic acid reductase 1), SEQ ID NO: 3 (Mycobacteroides abscessus ATCC 19977; A303M/W283R)”, the Km in the data set with O=C(O)CCCCC(=O)O (other: disodium adipate 0.1875-3 mM) was 1.06 mM.
Regarding “Mycobacterium abscessus carboxylic acid reductase, wild-type, SEQ ID NO: 1 (Mycobacteroides abscessus ATCC 19977)”, in the data set with O=C(O)CCCCC(=O)O (setting [5]), the Km came to 23.3 mM, the Vmax was 18.1 µM/min and the kcat was 1.68 s⁻¹.
